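Protocol summary: plate cells (96-well), add compound at 5 concentrations, incubate 48 h, interpolate endpoints linearly. GI50 is the concentration that inhibits growth by half. At the TGI there is no net growth.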
Experiments:
Assay in all cases: NCI anticancer screen, dose series, 48 h
SNB-75 CNS = test system: SNB-75 CNS
OVCAR-8 ovarian = test system: OVCAR-8 ovarian
SK-MEL-5 melanoma = test system: SK-MEL-5 melanoma
IGROV1 ovarian = test system: IGROV1 ovarian
SR leukemia = test system: SR leukemia
OVCAR-4 ovarian = test system: OVCAR-4 ovarian
M14 melanoma = test system: M14 melanoma
MALME-3M melanoma = test system: MALME-3M melanoma
K-562 leukemia = test system: K-562 leukemia
HCT-116 colon = test system: HCT-116 colon

## Cc1noc2c1-c1ccccc1C(c1ccc(Cl)cc1)=N[C@H]2CC(N)=O
SNB-75 CNS
  GI50: 0.134 µM
  TGI: > 100 µM
OVCAR-8 ovarian
  GI50: 15.2 µM
  TGI: > 100 µM
SK-MEL-5 melanoma
  GI50: 6.96 µM
  TGI: > 75.2 µM
IGROV1 ovarian
  GI50: 6.03 µM
  TGI: > 100 µM
SR leukemia
  GI50: 0.976 µM
  TGI: > 70.6 µM
OVCAR-4 ovarian
  GI50: 4.35 µM
  TGI: > 100 µM
M14 melanoma
  GI50: 2.37 µM
  TGI: > 100 µM
MALME-3M melanoma
  GI50: 5.17 µM
  TGI: > 100 µM
K-562 leukemia
  GI50: 4.67 µM
  TGI: > 100 µM
HCT-116 colon
  GI50: 5.34 µM
  TGI: > 100 µM

## Oc1ccc(N=Nc2nccs2)c(O)c1
SNB-75 CNS
  GI50: 14.2 µM
  TGI: > 100 µM
OVCAR-8 ovarian
  GI50: 3.75 µM
  TGI: 23 µM
SK-MEL-5 melanoma
  GI50: 3.44 µM
  TGI: 18.4 µM
IGROV1 ovarian
  GI50: 4.14 µM
  TGI: 15.2 µM
SR leukemia
  GI50: 2.12 µM
  TGI: 9.8 µM
OVCAR-4 ovarian
  GI50: 3.46 µM
  TGI: > 100 µM
M14 melanoma
  GI50: 11 µM
  TGI: 48.4 µM
MALME-3M melanoma
  GI50: 14.7 µM
  TGI: 34.3 µM
K-562 leukemia
  GI50: 3.58 µM
  TGI: 34.3 µM
HCT-116 colon
  GI50: 2.92 µM
  TGI: 8.95 µM

## Cn1c(=S)c2[nH]c(SCCCc3ccccc3)nc2n(C)c1=O
SNB-75 CNS
  TGI: 84.5 µM
OVCAR-8 ovarian
  TGI: > 100 µM
SK-MEL-5 melanoma
  TGI: 33.5 µM
IGROV1 ovarian
  TGI: > 100 µM
SR leukemia
  TGI: 27.4 µM
OVCAR-4 ovarian
  TGI: > 100 µM
M14 melanoma
  TGI: > 100 µM
MALME-3M melanoma
  TGI: > 100 µM
K-562 leukemia
  TGI: > 100 µM
HCT-116 colon
  TGI: > 100 µM

## O=C1c2ccccc2C(=O)c2c(NCCN=Cc3ccccc3O)cccc21
SNB-75 CNS
  GI50: 2.33 µM
  TGI: 7.6 µM
OVCAR-8 ovarian
  GI50: 4.93 µM
  TGI: 22.1 µM
SK-MEL-5 melanoma
  GI50: 1.51 µM
  TGI: 5.2 µM
IGROV1 ovarian
  GI50: 2.57 µM
  TGI: 10.3 µM
SR leukemia
  GI50: 0.944 µM
  TGI: > 100 µM
OVCAR-4 ovarian
  GI50: 2.79 µM
  TGI: > 22.9 µM
M14 melanoma
  GI50: 7.44 µM
  TGI: 32.7 µM
MALME-3M melanoma
  GI50: 1.55 µM
  TGI: 3.84 µM
K-562 leukemia
  GI50: 2.47 µM
  TGI: > 45.1 µM
HCT-116 colon
  GI50: 3.64 µM
  TGI: 15.3 µM

## O=C1c2ccc3c4ccccc4n(-c4ccccc4)c3c2C(=O)N1c1ccc(Cl)cc1
SNB-75 CNS
  TGI: > 100 µM
OVCAR-8 ovarian
  TGI: > 100 µM
SK-MEL-5 melanoma
  TGI: > 100 µM
IGROV1 ovarian
  TGI: > 100 µM
SR leukemia
  TGI: > 100 µM
OVCAR-4 ovarian
  TGI: > 100 µM
M14 melanoma
  TGI: > 100 µM
MALME-3M melanoma
  TGI: > 100 µM
K-562 leukemia
  TGI: > 100 µM
HCT-116 colon
  TGI: > 100 µM

## N#Cc1c(-c2ccco2)cc(-c2ccc(N)cc2)[nH]c1=O
SNB-75 CNS
  TGI: > 100 µM
OVCAR-8 ovarian
  TGI: > 100 µM
SK-MEL-5 melanoma
  TGI: > 100 µM
IGROV1 ovarian
  TGI: > 100 µM
SR leukemia
  TGI: > 100 µM
OVCAR-4 ovarian
  TGI: > 100 µM
M14 melanoma
  TGI: > 100 µM
MALME-3M melanoma
  TGI: > 100 µM
K-562 leukemia
  TGI: > 100 µM
HCT-116 colon
  TGI: > 100 µM

## CC(=O)OCCOCNC(=S)N/N=C/c1ccc([N+](=O)[O-])s1
SNB-75 CNS
  TGI: > 100 µM
OVCAR-8 ovarian
  TGI: > 100 µM
SK-MEL-5 melanoma
  TGI: 81.7 µM
IGROV1 ovarian
  TGI: > 100 µM
SR leukemia
  TGI: > 100 µM
OVCAR-4 ovarian
  TGI: > 100 µM
M14 melanoma
  TGI: > 100 µM
MALME-3M melanoma
  TGI: > 100 µM
K-562 leukemia
  TGI: > 100 µM
HCT-116 colon
  TGI: 54 µM

## Cc1c(Cl)cccc1NC(=O)c1cccc([N+](=O)[O-])c1O
SNB-75 CNS
  TGI: 66.1 µM
OVCAR-8 ovarian
  TGI: > 100 µM
SK-MEL-5 melanoma
  TGI: 15.5 µM
IGROV1 ovarian
  TGI: > 83.2 µM
SR leukemia
  TGI: 74.8 µM
OVCAR-4 ovarian
  TGI: > 70.1 µM
M14 melanoma
  TGI: > 78.9 µM
MALME-3M melanoma
  TGI: 38.7 µM
K-562 leukemia
  TGI: > 82.7 µM
HCT-116 colon
  TGI: 40 µM

## COc1cc(-c2nnc3n2NC=C(C(=O)O)S3)cc(OC)c1OC
SNB-75 CNS
  TGI: > 100 µM
OVCAR-8 ovarian
  TGI: > 100 µM
SK-MEL-5 melanoma
  TGI: > 100 µM
IGROV1 ovarian
  TGI: > 100 µM
SR leukemia
  TGI: > 100 µM
OVCAR-4 ovarian
  TGI: > 87.5 µM
M14 melanoma
  TGI: > 100 µM
MALME-3M melanoma
  TGI: > 100 µM
K-562 leukemia
  TGI: > 63 µM
HCT-116 colon
  TGI: > 68.8 µM

## Clc1nc(Cl)c2ncn(Cc3ccccc3Cn3cnc4c(Cl)nc(Cl)nc43)c2n1
SNB-75 CNS
  GI50: 3.9 µM
  TGI: 16.4 µM
OVCAR-8 ovarian
  GI50: 2.9 µM
  TGI: 9.12 µM
SK-MEL-5 melanoma
  GI50: 1.81 µM
  TGI: 4.13 µM
IGROV1 ovarian
  GI50: 3.14 µM
  TGI: 8.46 µM
SR leukemia
  GI50: 2.17 µM
  TGI: 5.15 µM
OVCAR-4 ovarian
  GI50: 2 µM
  TGI: 4.05 µM
M14 melanoma
  GI50: 5.13 µM
  TGI: 10 µM
MALME-3M melanoma
  GI50: 0.211 µM
  TGI: 6.18 µM
K-562 leukemia
  GI50: 2.6 µM
  TGI: 6.8 µM
HCT-116 colon
  GI50: 2.06 µM
  TGI: 5.98 µM

## CCOC(=O)C1=C(N)Oc2c(sc3c(C)cccc23)C1c1ccc(F)cc1 (stereo unspecified)
SNB-75 CNS
  GI50: 0.265 µM
  TGI: 11.7 µM
OVCAR-8 ovarian
  GI50: 0.581 µM
  TGI: 18.1 µM
SK-MEL-5 melanoma
  GI50: 1.18 µM
  TGI: 8.49 µM
IGROV1 ovarian
  GI50: 0.475 µM
  TGI: 13.5 µM
SR leukemia
  GI50: 0.47 µM
  TGI: 17.9 µM
OVCAR-4 ovarian
  GI50: 3.33 µM
  TGI: 18.3 µM
M14 melanoma
  GI50: 0.486 µM
  TGI: 14.5 µM
MALME-3M melanoma
  GI50: 0.588 µM
  TGI: 20.8 µM
K-562 leukemia
  GI50: 0.375 µM
  TGI: > 42.7 µM
HCT-116 colon
  GI50: 0.429 µM
  TGI: 11.8 µM

## COc1cc(OC)c2sc(-c3ccc(-n4cncc4-c4cc(OC)c(OC)c(OC)c4)cc3)nc2c1
SNB-75 CNS
  GI50: 6.47 µM
  TGI: > 100 µM
OVCAR-8 ovarian
  GI50: > 100 µM
  TGI: > 100 µM
SK-MEL-5 melanoma
  GI50: 2.46 µM
  TGI: > 100 µM
IGROV1 ovarian
  GI50: 5.87 µM
  TGI: > 100 µM
SR leukemia
  GI50: 3.24 µM
  TGI: > 100 µM
OVCAR-4 ovarian
  GI50: 3.25 µM
  TGI: > 100 µM
M14 melanoma
  GI50: 7.91 µM
  TGI: > 100 µM
MALME-3M melanoma
  GI50: 3.73 µM
  TGI: > 100 µM
K-562 leukemia
  GI50: 3.83 µM
  TGI: > 100 µM
HCT-116 colon
  GI50: 3.92 µM
  TGI: > 100 µM

## NCCCOc1cc(Cl)ccc1NC(=O)c1cc2ccccc2cc1OCCCN
SNB-75 CNS
  GI50: 1.23 µM
  TGI: 2.5 µM
OVCAR-8 ovarian
  GI50: 1.84 µM
  TGI: 3.59 µM
SK-MEL-5 melanoma
  GI50: 1.47 µM
  TGI: 2.81 µM
IGROV1 ovarian
  GI50: 0.678 µM
  TGI: 2.28 µM
SR leukemia
  GI50: 1.72 µM
  TGI: 4.71 µM
OVCAR-4 ovarian
  GI50: 1.51 µM
  TGI: 2.91 µM
MALME-3M melanoma
  GI50: 1.65 µM
  TGI: 3.59 µM
K-562 leukemia
  GI50: 1.72 µM
  TGI: 4.12 µM
HCT-116 colon
  GI50: 1.37 µM
  TGI: 2.8 µM

## CCc1nc(Cl)c(Cl)c(Cl)n1
SNB-75 CNS
  TGI: > 100 µM
OVCAR-8 ovarian
  TGI: > 100 µM
SK-MEL-5 melanoma
  TGI: > 100 µM
IGROV1 ovarian
  TGI: > 100 µM
SR leukemia
  TGI: > 100 µM
OVCAR-4 ovarian
  TGI: > 100 µM
M14 melanoma
  TGI: > 100 µM
MALME-3M melanoma
  TGI: > 100 µM
K-562 leukemia
  TGI: > 100 µM

## CSc1ccc2c(cc1=O)[C@@H](NC(=O)c1cc(O)c(O)c(O)c1)CCc1cc(O)c(O)c(O)c1-2
SNB-75 CNS
  TGI: 53.7 µM
OVCAR-8 ovarian
  TGI: 54.2 µM
SK-MEL-5 melanoma
  TGI: 36.1 µM
SR leukemia
  TGI: 50.9 µM
OVCAR-4 ovarian
  TGI: 22.7 µM
M14 melanoma
  TGI: 36.6 µM
MALME-3M melanoma
  TGI: 93.3 µM
K-562 leukemia
  TGI: 18.9 µM
HCT-116 colon
  TGI: 29.4 µM
